# Source: EP4810052A2, “HCRHR2 SELECTIVE POLYPEPTIDES” (Gubra A/S, priority 2023, dated 2026)
# Starred links: 1 amine or outer side, 2 acyl side, 3 side chain; linkers in the order of their positions; H or OH if unused. Non-standard residues stand in square brackets, D forms with d. Residues, ends and D or L forms follow the SMILES beside them. Groups on a side chain read outwards from the residue. *: point of attachment. C20 diacid = O=C(O)CCCCCCCCCCCCCCCCCCC(=O)*; γGlu = O=C(O)[C@H](CCC(=O)[*:2])N[*:1]; Nle = CCCC[C@H](N)C(=O)O; AEEA = NCCOCCOCC(=O)O; Aib = CC(C)(N)C(=O)O
# Key:
# [1] = Telemetry in conscious healthy pigs; format: in vivo; settings: study A
# Method: PK/PD/safety properties of SEQ ID NO: 3 were evaluated in freely moving conscious healthy pigs by […].
# In study part A, the effects of an ascending dose regime of SEQ ID NO: 3, (0.03, 0.1, 0.3 and 1.0 mg/kg) was compared to placebo. Primary endpoints were blood pressure, heart rate and ECG measurements.
# In study part B, the effect of repeated dosing (once weekly, for 4 weeks) with a single dose of SEQ ID NO: 3 (0.3 mg/kg) was compared to placebo. Primary endpoints were blood pressure, heart rate and ECG measurements.
# [2] = Myocardial ischemia (LAD ligation) model in rats; format: in vivo; settings: MI rats; for Heart rate / Mean blood pressure: anesthetized, prior to termination
# Source text: Wistar male rats were obtained from JanVier (Janvier Labs, France) at 6 weeks of age. The animals were pair-housed. During the study, animals had free access to food (RM1, SDS Dietex) and drinking water ad libitum.
# Myocardial infarction (MI) was induced by chronic left anterior descending coronary artery (LAD) ligation performed at day zero. Sham operated animals were subjected to the same protocol; after the left lateral thoracotomy exposing the heart, the rib cage was closed without passing the suture thread around LAD.
# Treatments started at 1-month post-MI, in order to assess the potential beneficial effect of the candidate compound to prevent the progression of the pathology.
# Rats underwent transthoracic echocardiographic (ECG) examination in order to assess cardiac morphology and function in a noninvasively way. Echocardiography was performed by using a digital ultrasound system (Vivid S60, GE Medical Systems) equipped with a 12 MHz phased-array and an 18 MHz linear-array transducer. Standard B-mode (Brightness-mode) and M-mode (Motion-mode) images of the heart were obtained in the two-dimensional (2D) parasternal long axis view (PSLA). LV parameters were measured and calculated as the mean of 3 consecutive cardiac cycles by a single blinded trained operator.
# A total of four ECG exams were performed for all the animals. The first examination took place 5-7 days after surgery and was used as a control of the surgery. The second ECG was performed 1 month after LAD ligation. Based on the second ECG, MI rats included were randomized in […] homogeneous groups based on the left ventricular internal diameter in diastole (LVIDd), telediastolic (TeleD) volume, ejection fraction (EF) and fractional shortening (FS): Group 1 (Sham): n=10, group 2 (MI/Vehicle): n=19, group 3 (MI/Atenolol-Lisinopril-Spironolactone (A+L+S) 1-1-10 mg/kg): n=19, group 4 (MI/test peptide 30 nmol/kg): n=19 and group 5 (MI/test peptide 100 nmol/kg): n=19. Vehicle and test peptide were administrated daily SC and A+L+S were dosed through drinking water. The third and fourth ECG were done 2 and 3 months after surgery, and were used to assess the cardiac remodelling and function following MI. At the fourth ECG isovolumic relaxation time (IVRT) and cardiac output (CO) were also assessed by Doppler-echocardiography.
# Prior to termination, hemodynamic measurements were performed under anaesthesia using a fluid-filled catheter (BLPR and TBM4m, World Precision Instrument). At termination, left soleus was dissected and weighed.
# Statistical analyses were performed with the Graphpad 9 software. If values were normally distributed, a parametric analysis was performed. If samples were drawn from non-normal populations, a non-parametric analysis was performed. First, differences were assessed between Sham and MI/Vehicle using a t-test. Then, the treated MI groups were compared to MI/Vehicle using a one-way ANOVA followed by the appropriate post-hoc test.
# rCRHR1 = target: T1, rCRHR1 (Rattus norvegicus, UniProt P35353); experiment: cAMP potency, transiently transfected CHO-K1 cells, rCRHR1; format: cell-based; settings: transiently transfected CHO-K1, average n=3; read-out: Transient cell system EC50 (nM) rCRH R1
# T1 construct: DYK (FLAG); host or cells: CHO-K1, transiently transfected
# T1 sequence (P35353 24-415): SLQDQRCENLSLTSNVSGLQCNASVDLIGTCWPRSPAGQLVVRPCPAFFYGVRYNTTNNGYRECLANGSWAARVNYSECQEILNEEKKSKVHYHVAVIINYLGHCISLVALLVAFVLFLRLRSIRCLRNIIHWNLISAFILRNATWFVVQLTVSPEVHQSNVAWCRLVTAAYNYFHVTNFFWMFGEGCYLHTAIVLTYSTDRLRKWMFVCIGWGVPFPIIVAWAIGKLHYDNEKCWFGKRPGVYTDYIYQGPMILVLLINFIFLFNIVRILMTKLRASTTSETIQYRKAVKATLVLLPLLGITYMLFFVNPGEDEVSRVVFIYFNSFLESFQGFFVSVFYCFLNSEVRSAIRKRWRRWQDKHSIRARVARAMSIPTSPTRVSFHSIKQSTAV
# Method: Selected peptides were tested for potency on different species (mouse, rat, porcine) using transiently transfected CHO-K1 cells using the general procedure.
# [3] = 2 months of treatment, 30 nmol/kg, ± SEM
# [4] = 2 months of treatment, 100 nmol/kg, ± SEM
# [5] = 2 months of treatment, compared to MI/Vehicle
compound,measurement,setting,value
CC[C@H](C)[C@H](N)C(=O)N[C@H](C(=O)N[C@@H](CC(C)C)C(=O)N[C@@H](CO)C(=O)N[C@@H](CC(C)C)C(=O)N[C@@H](CC(=O)O)C(=O)N[C@H](C(=O)N1CCC[C@H]1C(=O)N[C@H](C(=O)NCC(=O)N[C@@H](CC(C)C)C(=O)N[C@@H](CC(C)C)C(=O)N[C@@H](CCC(N)=O)C(=O)N[C@H](C(=O)N[C@@H](CC(C)C)C(=O)N[C@@H](CC(C)C)C(=O)N[C@@H](CCC(=O)O)C(=O)N[C@@H](CCC(N)=O)C(=O)N[C@@H](C)C(=O)N[C@@H](CCCNC(=N)N)C(=O)N[C@@H](C)C(=O)N[C@@H](CCCNC(=N)N)C(=O)N[C@@H](C)C(=O)N[C@@H](C)C(=O)N[C@@H](CCCNC(=N)N)C(=O)N[C@@H](CCC(=O)O)C(=O)N[C@@H](CCC(N)=O)C(=O)N[C@@H](C)C(=O)N[C@@H](CCCCNC(=O)COCCOCCNC(=O)COCCOCCNC(=O)CC[C@H](NC(=O)CC[C@H](NC(=O)CCCCCCCCCCCCCCCCCCC(=O)O)C(=O)O)C(=O)O)C(=O)N[C@H](C(=O)N[C@@H](CC(N)=O)C(=O)N[C@@H](C)C(=O)N[C@@H](CCC(=O)O)C(=O)N[C@H](C(=O)N[C@@H](CC(C)C)C(=O)N[C@@H](C)C(=O)N[C@@H](CCC(=O)O)C(=O)N[C@H](C(N)=O)C(C)C)[C@@H](C)CC)[C@@H](C)O)[C@@H](C)CC)[C@@H](C)CC)C(C)C)C(C)C [SEQ ID NO: 3] (H-IVLSLDVPIGLLQILLEQARARAAREQAK([AEEA-AEEA-γGlu-γGlu-C20 diacid])TNAEILAEV-NH2),Heart rate,[1],remained unaffected
same,mean arterial blood pressure,[1],remained unaffected
same,relaxation of the left ventricle,[1],not affected
same,"systemic or cardiac hemodynamics (LV end diastolic pressure, time constant of relaxation, baroreceptor sensitivity, heart rate variability)",[1],No relevant findings
same,PR-Interval,[1]; ECG,slight decrease
same,QT-Interval,[1]; ECG,unaffected
same,inotropic effects (contractility),[1]; ascending s.c. doses 0.03-1.0 mg/kg,long-lasting positive ionotropic effects
same,Body weight at termination,"[2]; 30 nmol/kg, ± SEM",550.1 ± 10.6 g
same,Left soleus mass,"[2]; 30 nmol/kg, ± SEM",274.9 ± 9.9 mg
same,Body weight at termination,"[2]; 100 nmol/kg, ± SEM",551.6 ± 6.7 g
same,Left soleus mass,"[2]; 100 nmol/kg, ± SEM",275.2 ± 6.8 mg
same,CO,[2]; [3],129.0 ± 5.1 mL/min
same,EF B-mode,[2]; [3],45.52 ± 1.2 %
same,EF M-mode,[2]; [3],46.42 ± 1.2 %
same,FS,[2]; [3],20.63 ± 0.5 %
same,IVRT,[2]; [3],21.81 ± 0.5 ms
same,LVIDd,[2]; [3],10.86 ± 0.2 mm
same,LVIDs,[2]; [3],8.63 ± 0.2 mm
same,LVPWd,[2]; [3],1.84 ± 0.04 mm
same,LVPWs,[2]; [3],2.94 ± 0.05 mm
same,SV,[2]; [3],0.41 ± 0.01 mL
same,CO,[2]; [4],125.4 ± 3.8 mL/min
same,EF B-mode,[2]; [4],45.55 ± 0.7 %
same,EF M-mode,[2]; [4],46.22 ± 0.7 %
same,FS,[2]; [4],20.46 ± 0.4 %
same,IVRT,[2]; [4],20.87 ± 0.3 ms
same,LVIDd,[2]; [4],10.94 ± 0.1 mm
same,LVIDs,[2]; [4],8.71 ± 0.1 mm
same,LVPWd,[2]; [4],1.63 ± 0.1 mm
same,LVPWs,[2]; [4],2.73 ± 0.05 mm
same,SV,[2]; [4],0.40 ± 0.02 mL
same,cardiac output,[2]; [5],significant improvements
same,ejection fraction,[2]; [5],significant improvements
same,fractional shortening,[2]; [5],significant improvements
same,stroke volume,[2]; [5],significant improvements
same,Heart rate,[2]; 30 nmol/kg,348.8 ± 6.7 bpm
same,Mean blood pressure,[2]; 30 nmol/kg,109.9 ± 4.0 mmHg
same,Heart rate,[2]; 100 nmol/kg,353.2 ± 9.1 bpm
same,Mean blood pressure,[2]; 100 nmol/kg,112.6 ± 4.3 mmHg
same,muscle mass,[2]; at termination,significant increase
same,Body weight at termination,[2]; compared to MI-Vehicle,weighed significantly more
CCCC[C@H](NC(=O)[C@@H](NC(=O)[C@H](CCC(=O)O)NC(=O)[C@H](C)NC(=O)[C@H](CC(N)=O)NC(=O)C(C)(C)NC(=O)[C@H](CCCCNC(=O)COCCOCCNC(=O)COCCOCCNC(=O)CC[C@H](NC(=O)CC[C@H](NC(=O)CCCCCCCCCCCCCCCCCCC(=O)O)C(=O)O)C(=O)O)NC(=O)[C@H](C)NC(=O)[C@H](CCC(N)=O)NC(=O)[C@H](CCC(=O)O)NC(=O)[C@H](CCCNC(=N)N)NC(=O)[C@H](C)NC(=O)[C@H](C)NC(=O)[C@H](CCCNC(=N)N)NC(=O)[C@H](C)NC(=O)[C@H](CCCNC(=N)N)NC(=O)[C@H](C)NC(=O)[C@H](CCC(N)=O)NC(=O)[C@H](CO)NC(=O)[C@H](CC(C)C)NC(=O)[C@H](CC(C)C)NC(=O)[C@@H](NC(=O)[C@H](CCC(N)=O)NC(=O)[C@H](CC(C)C)NC(=O)[C@H](CC(C)C)NC(=O)CNC(=O)[C@@H](NC(=O)[C@@H]1CCCN1C(=O)[C@@H](NC(=O)[C@H](CC(=O)O)NC(=O)[C@H](CC(C)C)NC(=O)[C@H](CO)NC(=O)[C@H](CC(C)C)NC(=O)[C@@H](NC(=O)[C@@H]1CCCN1)C(C)C)C(C)C)[C@@H](C)CC)[C@@H](C)CC)[C@@H](C)CC)C(=O)N[C@@H](C)C(=O)N[C@@H](CCC(=O)O)C(=O)N[C@H](C(N)=O)C(C)C [SEQ ID NO: 238] (H-PVLSLDVPIGLLQILLSQARARAAREQAK([AEEA-AEEA-γGlu-γGlu-C20 diacid])[Aib]NAEI[Nle]AEV-NH2),EC50,rCRHR1,> 1000 nM
